Data: patent US20030212107A1, “R-reliprodil for treating glaucoma” (priority 2002, published 2003)
Entries after “also recorded” stand apart in the source; their conditions may differ.

Columns and labels:
[1] = tested on: cultured rat retinal ganglion cells; assay: Glutamate-induced rat retinal ganglion cell death; format: cell-based; settings: 10 nM for 30 minutes, then 100 μM glutamate; viable cells counted after 3 days; FIG. 1
Source text: Retinal ganglion cells were selected as they represent the retinal cell that degenerates in glaucoma. MK-801 was selected as a reference NMDA antagonist.
Isolation of rat retinal ganglion cells and assessment of viability in the absence and presence of glutamate was described in Pang, et al., “Protection by Eliprodil Against Excitotoxicity in Cultured Rat Retinal Ganglion Cells”, Investigative Ophthalmology & Visual Science, Vol. 40(6), pp. 1170-1176, May, 1999. Briefly, isolated cultured rat retinal ganglion cells were treated with racemic (R/S) eliprodil (10 nM), R-eliprodil (10 nM), or S-eliprodil (10 nM) for thirty (30) minutes followed by the addition of 100 μM glutamate. Survival was determined by counting viable cells after an incubation period of three (3) days. Survival with vehicle alone defines 100%. […] S-eliprodil was ineffective.

piglet Purkinje fibre = settings: for Concentration with statistically significant prolongation of APD90: pig
Protocol: Eliprodil and its two enantiomers induced concentration-dependent prolongation of the duration of the action potential of the piglet Purkinje fibre, particularly at the 0.25 Hz frequency. Based on action potential duration at 90% repolarization (APD90), statistically significant prolongation was evident at R(−) eliprodil concentrations of 100 nM and higher, but at S(+) eliprodil concentrations of 30 nM and higher. With high concentrations, APD90 decreased with both compounds.

[2] = tested on: NMDA-induced firing rate of the lateral vestibular nucleus; assay: NMDA-induced firing rate of the lateral vestibular nucleus in vivo
[3] = cat, in vivo
Protocol: Eliprodil and its enantiomers were evaluated for their potential for prolonging QTc by determining their dose-related effects on cardiac electrical activity. Two different experimental models were utilized for these studies: (1) Action potential duration in piglet Purkinje fibers from the heart and (2) Electrocardiographic parameters in pentobarbital anesthetized cats.
Eliprodil and its two enantiomers were also evaluated for hemodynamic and electrocardiographic parameters in pentobarbital-anesthetized cats. […] Compounds were administered at increasing doses from 0.01 to 3 mg/kg as a five-minute intravenous infusion every 20 minutes.

hippocampal slices = assay: Recovery of synaptic transmission after hypoxia in hippocampal slices in vitro; settings: for Recovery of excitatory post synaptic potentials following hypoxia (efficacy): comparable dose, 15 minute hypoxia, recovery assessed 60 minutes after reoxygenation
Protocol: Dose-Response Relations Comparing the Efficacy of Racemic (R/S)-Eliprodil (Open Circles), R-Eliprodil (Closed Circles) and Memantine (Closed Diamonds) for their Ability to Improve Recovery of Synaptic Transmission Following a 15 Minute Period of Hypoxia in Hippocampal Slices in vitro (FIG. 2). […] Briefly, hippocampal slices were prepared acutely the same day as the experiment, and each compound was bath applied 30 minutes prior to delivery of the 15 minute hypoxic insult. Recovery of evoked […] expressed as percent of the initial, pre-hypoxia epsp maximum slope, with this percent recovery assessed 60 minutes after reoxygenation.

NMDA receptor = NMDA receptor (Homo sapiens, UniProt Q05586+Q13224); assay: biochemical
[4] = tested on: voltage operated calcium channels of the L, N and P type; assay: Antagonism at voltage operated calcium channels
Source text: (§1) The role of these pharmacological activities in the neuroprotective efficacy has not been established for this drug.

[5] = following some doses in humans; cited from earlier work
5-HT1A = biological target: T1, 5-HT1A (Homo sapiens, UniProt P08908); assay: Binding studies; settings: 5-HT1A binding site
T1 sequence (P08908 1-422): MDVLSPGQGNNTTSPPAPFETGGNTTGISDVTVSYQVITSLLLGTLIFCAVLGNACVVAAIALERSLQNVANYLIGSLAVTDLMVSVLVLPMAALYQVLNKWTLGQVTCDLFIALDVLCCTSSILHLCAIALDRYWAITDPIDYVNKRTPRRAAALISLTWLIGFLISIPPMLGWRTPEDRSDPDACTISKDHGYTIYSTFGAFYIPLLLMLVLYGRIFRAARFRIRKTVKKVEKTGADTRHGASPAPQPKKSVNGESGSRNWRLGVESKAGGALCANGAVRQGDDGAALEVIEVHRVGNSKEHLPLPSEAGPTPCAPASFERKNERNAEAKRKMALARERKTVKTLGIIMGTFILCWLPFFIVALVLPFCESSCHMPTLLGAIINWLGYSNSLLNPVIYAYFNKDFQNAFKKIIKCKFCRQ
Source text: as §1

β3-adrenergic = β3-adrenergic (Homo sapiens, UniProt P13945); assay: Binding studies; settings: β3-adrenergic binding site
Source text: as §1

histamine H2 = histamine H2 (Homo sapiens, UniProt P25021); assay: Binding studies; settings: histamine H2 binding site
Source text: as §1

5-HT7 = 5-HT7 (Homo sapiens, UniProt P34969); assay: Binding studies; settings: 5-HT7 binding site
Source text: as §1

α1-adrenergic = assay: Binding studies; settings: α1-adrenergic binding site
Source text: as §1

5-HT2A = 5-HT2A (Homo sapiens, UniProt P28223); assay: Binding studies; settings: 5-HT2A binding site
Source text: as §1

5-HT uptake = 5-HT uptake (Homo sapiens, UniProt P31645); assay: Binding studies; settings: 5-HT uptake binding site
Source text: as §1

histamine H1 = histamine H1 (Homo sapiens, UniProt P35367); assay: Binding studies; settings: histamine H1 binding site
Source text: as §1

sodium channels = assay: Antagonism at sodium channels
Source text: as §1

NMDA receptor, sequence (Q13224 27-1484, other chains not shown): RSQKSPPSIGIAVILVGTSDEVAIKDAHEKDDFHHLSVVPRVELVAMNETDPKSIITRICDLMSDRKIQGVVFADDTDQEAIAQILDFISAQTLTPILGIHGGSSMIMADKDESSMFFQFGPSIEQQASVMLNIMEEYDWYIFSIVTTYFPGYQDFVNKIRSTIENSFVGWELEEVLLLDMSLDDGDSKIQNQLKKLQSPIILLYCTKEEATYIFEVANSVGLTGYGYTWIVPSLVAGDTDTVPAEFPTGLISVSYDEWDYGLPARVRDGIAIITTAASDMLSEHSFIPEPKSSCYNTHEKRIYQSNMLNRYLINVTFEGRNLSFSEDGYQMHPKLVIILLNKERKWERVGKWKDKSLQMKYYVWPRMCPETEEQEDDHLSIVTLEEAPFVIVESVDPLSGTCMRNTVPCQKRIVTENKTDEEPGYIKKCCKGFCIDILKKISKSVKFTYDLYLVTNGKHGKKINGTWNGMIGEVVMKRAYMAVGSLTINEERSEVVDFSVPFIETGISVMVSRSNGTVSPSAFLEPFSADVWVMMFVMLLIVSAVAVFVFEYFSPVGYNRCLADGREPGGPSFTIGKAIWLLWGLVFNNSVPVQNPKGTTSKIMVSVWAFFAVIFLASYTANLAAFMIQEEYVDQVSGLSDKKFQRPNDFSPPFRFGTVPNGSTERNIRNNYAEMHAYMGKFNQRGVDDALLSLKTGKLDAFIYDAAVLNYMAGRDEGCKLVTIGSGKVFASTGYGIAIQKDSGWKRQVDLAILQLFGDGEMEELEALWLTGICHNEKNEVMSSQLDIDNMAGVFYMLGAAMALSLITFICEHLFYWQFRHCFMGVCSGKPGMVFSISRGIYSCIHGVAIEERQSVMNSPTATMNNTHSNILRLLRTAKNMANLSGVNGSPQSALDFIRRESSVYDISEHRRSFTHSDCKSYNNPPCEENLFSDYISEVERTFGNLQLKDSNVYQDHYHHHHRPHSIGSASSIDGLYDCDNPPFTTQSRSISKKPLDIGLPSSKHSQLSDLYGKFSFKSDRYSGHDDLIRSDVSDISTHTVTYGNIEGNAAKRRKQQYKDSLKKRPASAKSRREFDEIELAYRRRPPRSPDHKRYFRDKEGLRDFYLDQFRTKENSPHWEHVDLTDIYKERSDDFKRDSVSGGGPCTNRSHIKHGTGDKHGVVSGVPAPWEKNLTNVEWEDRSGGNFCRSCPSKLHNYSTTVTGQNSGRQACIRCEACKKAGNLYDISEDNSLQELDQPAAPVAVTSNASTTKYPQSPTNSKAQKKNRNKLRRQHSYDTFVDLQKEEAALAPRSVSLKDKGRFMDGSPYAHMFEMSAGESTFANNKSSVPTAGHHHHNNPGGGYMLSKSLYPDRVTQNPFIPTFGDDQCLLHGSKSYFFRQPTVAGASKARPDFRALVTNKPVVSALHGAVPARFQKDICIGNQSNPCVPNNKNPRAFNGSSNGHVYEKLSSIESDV
histamine H2, sequence (P25021 whole entry): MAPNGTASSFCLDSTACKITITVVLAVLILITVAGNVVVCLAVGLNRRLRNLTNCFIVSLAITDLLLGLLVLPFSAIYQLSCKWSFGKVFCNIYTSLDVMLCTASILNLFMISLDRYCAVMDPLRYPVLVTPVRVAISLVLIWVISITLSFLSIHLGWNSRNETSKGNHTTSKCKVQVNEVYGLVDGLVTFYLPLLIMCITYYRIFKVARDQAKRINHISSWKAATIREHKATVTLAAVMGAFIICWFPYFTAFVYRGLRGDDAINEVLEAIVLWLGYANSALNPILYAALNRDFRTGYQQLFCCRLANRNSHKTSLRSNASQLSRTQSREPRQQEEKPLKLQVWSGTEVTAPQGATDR
5-HT uptake, sequence (P31645 whole entry): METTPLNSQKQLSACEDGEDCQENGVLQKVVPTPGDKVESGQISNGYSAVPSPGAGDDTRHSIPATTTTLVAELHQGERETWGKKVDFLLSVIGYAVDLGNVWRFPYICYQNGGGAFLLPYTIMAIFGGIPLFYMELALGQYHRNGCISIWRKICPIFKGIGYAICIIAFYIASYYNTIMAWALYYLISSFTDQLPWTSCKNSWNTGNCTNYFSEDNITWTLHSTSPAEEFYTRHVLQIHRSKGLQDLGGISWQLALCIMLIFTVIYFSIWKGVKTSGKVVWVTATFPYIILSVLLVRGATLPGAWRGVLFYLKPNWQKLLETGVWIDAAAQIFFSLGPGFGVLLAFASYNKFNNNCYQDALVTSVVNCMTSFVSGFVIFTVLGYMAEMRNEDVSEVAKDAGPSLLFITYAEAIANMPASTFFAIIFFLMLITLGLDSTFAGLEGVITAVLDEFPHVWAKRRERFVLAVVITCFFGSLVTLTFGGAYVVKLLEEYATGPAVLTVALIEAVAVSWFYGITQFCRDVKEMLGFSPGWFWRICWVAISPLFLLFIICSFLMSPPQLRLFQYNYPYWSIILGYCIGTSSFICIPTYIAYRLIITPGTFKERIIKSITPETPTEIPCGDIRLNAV
5-HT7, sequence (P34969 whole entry, species assumed): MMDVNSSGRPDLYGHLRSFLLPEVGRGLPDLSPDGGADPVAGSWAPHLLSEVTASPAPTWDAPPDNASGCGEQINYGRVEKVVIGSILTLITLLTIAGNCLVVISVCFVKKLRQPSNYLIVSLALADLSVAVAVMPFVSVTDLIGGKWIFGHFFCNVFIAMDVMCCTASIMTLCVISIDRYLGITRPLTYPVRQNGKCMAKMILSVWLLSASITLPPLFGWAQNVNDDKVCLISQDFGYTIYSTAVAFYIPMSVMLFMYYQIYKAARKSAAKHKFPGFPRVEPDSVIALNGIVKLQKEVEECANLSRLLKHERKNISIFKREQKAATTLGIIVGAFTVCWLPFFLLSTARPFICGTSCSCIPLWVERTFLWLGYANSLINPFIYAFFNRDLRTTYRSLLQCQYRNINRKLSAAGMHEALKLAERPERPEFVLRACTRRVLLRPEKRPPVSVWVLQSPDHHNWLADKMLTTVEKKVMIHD
histamine H1, sequence (P35367 whole entry): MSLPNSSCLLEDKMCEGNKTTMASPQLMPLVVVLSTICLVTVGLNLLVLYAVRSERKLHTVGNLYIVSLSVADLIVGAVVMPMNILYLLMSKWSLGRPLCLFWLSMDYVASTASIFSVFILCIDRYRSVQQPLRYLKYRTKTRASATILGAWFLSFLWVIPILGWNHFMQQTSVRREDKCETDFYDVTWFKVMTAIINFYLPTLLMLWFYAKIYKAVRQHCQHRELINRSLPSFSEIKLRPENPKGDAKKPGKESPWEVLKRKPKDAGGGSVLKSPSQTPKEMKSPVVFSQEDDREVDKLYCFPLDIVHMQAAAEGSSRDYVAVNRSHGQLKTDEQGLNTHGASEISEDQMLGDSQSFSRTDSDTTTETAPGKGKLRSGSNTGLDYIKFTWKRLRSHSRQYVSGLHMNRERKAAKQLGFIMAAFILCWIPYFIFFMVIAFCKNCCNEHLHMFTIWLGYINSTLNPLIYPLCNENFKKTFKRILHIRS
β3-adrenergic, sequence (P13945 whole entry): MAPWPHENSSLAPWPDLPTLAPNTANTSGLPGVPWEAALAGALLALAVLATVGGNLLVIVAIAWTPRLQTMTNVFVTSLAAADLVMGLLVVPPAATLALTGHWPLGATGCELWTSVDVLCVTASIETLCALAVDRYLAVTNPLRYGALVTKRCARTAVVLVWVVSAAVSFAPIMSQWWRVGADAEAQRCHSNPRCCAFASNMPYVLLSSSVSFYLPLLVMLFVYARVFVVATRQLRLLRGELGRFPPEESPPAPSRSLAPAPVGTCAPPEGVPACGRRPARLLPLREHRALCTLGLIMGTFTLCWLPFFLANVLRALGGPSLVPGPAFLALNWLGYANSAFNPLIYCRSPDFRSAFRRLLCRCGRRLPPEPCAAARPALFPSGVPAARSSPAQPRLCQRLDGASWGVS
5-HT2A, sequence (P28223 whole entry, species assumed): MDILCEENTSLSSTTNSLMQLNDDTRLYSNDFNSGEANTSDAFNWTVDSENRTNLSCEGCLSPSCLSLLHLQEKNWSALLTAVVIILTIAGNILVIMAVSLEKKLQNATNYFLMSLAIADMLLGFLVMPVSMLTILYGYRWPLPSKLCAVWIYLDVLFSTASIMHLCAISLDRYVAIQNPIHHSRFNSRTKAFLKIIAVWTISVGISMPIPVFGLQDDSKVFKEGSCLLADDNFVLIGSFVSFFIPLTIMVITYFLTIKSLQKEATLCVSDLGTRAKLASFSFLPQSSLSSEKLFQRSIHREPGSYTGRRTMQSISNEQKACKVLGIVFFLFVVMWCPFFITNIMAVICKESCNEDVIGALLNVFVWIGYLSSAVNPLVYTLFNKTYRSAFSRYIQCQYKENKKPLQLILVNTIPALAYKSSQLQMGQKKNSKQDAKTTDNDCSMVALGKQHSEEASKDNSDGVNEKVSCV

Row | Compound | Neuroprotective effect on glutamate-induced retinal ganglion cell death (survival) [1] | Concentration with statistically significant prolongation of APD90 (piglet Purkinje fibre) | Inhibition of NMDA-induced firing rate of the lateral vestibular nucleus [2] | Threshold Dose, Heart Rate Decrease [3] | Threshold Dose, Mean Blood Pressure Decrease [3] | Threshold Dose, QTc Prolongation [3] | Recovery of excitatory post synaptic potentials following hypoxia (efficacy) (hippocampal slices) | Ki (NMDA receptor) | Maximum effect on APD90 (piglet Purkinje fibre) | also measured
1 | O[C@H](CN1CCC(Cc2ccc(F)cc2)CC1)c1ccc(Cl)cc1 [S-eliprodil] | ineffective | ≥ 30 nM | almost inactive at the highest dose tested | 0.1 mg/kg | 1.0 mg/kg | 0.01 mg/kg | less effective | 10 µM | – | –
2 | OC(CN1CCC(Cc2ccc(F)cc2)CC1)c1ccc(Cl)cc1 (racemic) [Eliprodil] | marked neuroprotective activity | – | strongly inhibit | 0.1 mg/kg | 1.0 mg/kg | 0.03 mg/kg | less effective | – | equal to that of S(+) eliprodil | Antagonism at voltage operated calcium channels [4]: shows antagonism; QTc prolongation [5]: asymptomatic QTc prolongation; Effect on APD90 at low concentrations (piglet Purkinje fibre): intermediate between the two enantiomers; Affinity (5-HT1A): sub-micromolar; Affinity (β3-adrenergic): sub-micromolar; Affinity (histamine H2): sub-micromolar; Affinity (5-HT7): sub-micromolar; Affinity (α1-adrenergic): sub-micromolar; Affinity (5-HT2A): sub-micromolar; Affinity (5-HT uptake): sub-micromolar; Affinity (histamine H1): sub-micromolar; Antagonism at sodium channels (sodium channels): shows antagonism
3 | O[C@@H](CN1CCC(Cc2ccc(F)cc2)CC1)c1ccc(Cl)cc1 [R-eliprodil, R-α-(4-chlorophenyl)-4-(4-fluorophenylmethyl)-1-peperidineethanol] | marked neuroprotective activity; also recorded: as efficacious as a protectant as racemic eliprodil | ≥ 100 nM | strongly inhibit | 0.3 mg/kg | 1.0 mg/kg | 0.1 mg/kg | substantial recovery; also recorded: more efficacious than either racemic or S-eliprodil | 0.2 µM | less than is that seen with S(+) eliprodil | Plasma level ([3]; iv, 0.1 mg/kg): 34.9 ± 2.8 ng/mL; Potency (EC50) for recovery of synaptic transmission, compared with racemic-eliprodil or memantine (hippocampal slices; p<0.05, Student's t-test, FIG. 2): statistically significantly more potent
